One experiment concerns SHP-77. Briefly: Inhibition of proliferation of small cell lung cancer cells, CellTiter-Glo. It counts as cell-based. Conditions: Homo sapiens, SHP77, 120 h; SHP-77, cultured for 5 days. How it is done: Specifically, the following test was performed to evaluate the inhibitory activity of the compound according to the present invention against the cell proliferation in the SCLC cells.
To check an inhibitory ability of cell growth in one SCLC cell line, a test was performed as follows. Cells were seeded in 180 μL of a culture broth at a density of 2,000 to 3,000 cells/well in a white clear bottom 96-well plate (Corning) according to the growth ability of each cell, and then cultured for 24 hours under conditions of 5% CO2 and 37° C. Thereafter, the compound was prepared by diluting a 10 mM stock solution three-fold with 100% DMSO at a total of 12 concentrations so that a peak concentration of the compound was in a range of 10 mM to 0.05 μM, and the diluted compound was then diluted in each cell culture medium so that a final concentration of the compound was in a range of 100 μM to 0.5 nM. 20 μL of a diluted solution diluted with a medium was added to the cell solution in which cells were seeded in the 96-well plate on the previous day so that a final concentration of the diluted solution was in a range of 10 μM to 0.05 nM. Each of the cells was cultured for 5 days. To check cell viability, a mixture provided in aCellTiter-Glo® Luminescent Cell Viability Assay Kit (Promega) was added to each of the cultured cell media, and cultured for another 10 minutes under a condition of 37° C. Then, a degree of luminescence (fluorescence) was measured. A degree of inhibition of the cell growth according to the treatment concentration of each of the compounds was calculated based on the fluorescence of the solvent control cells which were not treated with the compound. In this case, the concentration of each of the compounds inhibiting 50% of the cell growth was determined to be a GI50 (nM) value, and calculated using Prism (Version 7.01; GraphPad) software.

The next experiment addresses T1, TTK (Homo sapiens, UniProt P33981).
T1 sequence (P33981 1-857): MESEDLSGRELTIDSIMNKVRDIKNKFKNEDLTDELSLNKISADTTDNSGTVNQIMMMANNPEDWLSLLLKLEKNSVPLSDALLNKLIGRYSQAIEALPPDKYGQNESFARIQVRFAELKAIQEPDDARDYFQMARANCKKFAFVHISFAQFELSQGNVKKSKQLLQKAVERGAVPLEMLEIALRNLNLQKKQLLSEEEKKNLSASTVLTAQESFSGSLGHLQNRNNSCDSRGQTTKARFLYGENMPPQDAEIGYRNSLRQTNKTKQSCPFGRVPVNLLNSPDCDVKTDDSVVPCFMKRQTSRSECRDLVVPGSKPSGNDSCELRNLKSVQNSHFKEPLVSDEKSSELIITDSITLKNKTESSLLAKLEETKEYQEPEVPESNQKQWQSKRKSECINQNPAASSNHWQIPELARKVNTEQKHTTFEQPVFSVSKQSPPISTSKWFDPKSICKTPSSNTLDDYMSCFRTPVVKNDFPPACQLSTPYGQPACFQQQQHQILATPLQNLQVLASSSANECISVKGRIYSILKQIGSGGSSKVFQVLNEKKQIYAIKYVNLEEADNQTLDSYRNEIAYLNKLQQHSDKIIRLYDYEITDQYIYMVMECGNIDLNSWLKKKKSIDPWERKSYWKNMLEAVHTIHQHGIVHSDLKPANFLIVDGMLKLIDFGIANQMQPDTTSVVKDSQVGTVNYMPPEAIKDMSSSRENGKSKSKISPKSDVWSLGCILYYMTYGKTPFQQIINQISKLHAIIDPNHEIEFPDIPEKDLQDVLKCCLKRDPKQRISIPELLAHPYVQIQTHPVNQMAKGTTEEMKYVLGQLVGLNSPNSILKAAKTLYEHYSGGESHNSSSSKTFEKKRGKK
Briefly: TTK enzyme activity, ADP-Glo kinase assay. It counts as biochemical. Further details: purchased SignalChem T20-10G. Conditions: purified human TTK, ATP 10 μM, 25° C., 2 hours. In outline:
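ADP-Glo read-out; percent inhibition at each compound concentration was relative to the solvent-only control. The reactions contained 25 ng enzyme, 0.2 μg substrate and 10 μM ATP in 40 mM Tris-HCl pH 7.4 with 20 mM MgCl2, 0.5 mg/mL BSA and 50 μM DTT, and ran 2 h at 25 °C.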
(ADP-Glo first removes unused ATP, then detects ADP through luciferase.)

Another experiment has as its system MDA-MB-231 cells. Briefly: Inhibition of proliferation of triple-negative breast cancer cells, CellTiter-Glo. It counts as cell-based. The following applies: Homo sapiens, 120 h; MDA-MB-231, cultured for 5 days. Put shortly: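 MDA-MB-231 cells pre-cultured 24 h (5% CO2, 37 °C), then exposed to compound for 5 days at 12 three-fold dilutions, final 10 μM to 0.05 nM. Viability read by CellTiter-Glo luminescence after 10 min at 37 °C; growth inhibition calculated relative to untreated solvent-control cells.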
A general note: In ATP-based viability assays light output follows the ATP content of the culture.

Here are results for 18 compounds from patent US20230183243A1, “HETEROARYL DERIVATIVES AND PHARMACEUTICAL COMPOSITION COMPRISING SAME AS ACTIVE INGREDIENT” (VORONOI INC., priority 2019, published 2023).

In general, GI50 refers to the concentration at which growth is held to half of that of the control. One may read the IC50 as the midpoint of a concentration-inhibition curve. Lower therefore signals greater potency in that assay.

Molecules are shown by their SMILES.

Consider `CN(C)S(=O)(=O)CCNc1nc(Nc2ccc(-c3ccnn3C)c3c2OCCO3)nc2[nH]cc(C#N)c12` [Example 85, 2-((5-cyano-2-((8-(1-methyl-1H-pyrazol-5-yl)-2,3-dihydrobenzo[b][1,4]dioxin-5-yl)amino)-7H-pyrrolo[2,3-d]pyrimidin-4-yl)amino)-N,N-dimethylethane-1-sulfonamide], for which the results for the GI50 in the experiment on SHP-77 and in the experiment with MDA-MB-231 cells were less than 100 nM and 100 to 1000 nM, respectively. Besides, the half-maximal inhibitory concentration (IC50) at TTK was less than 50 nM.
For `COc1cc(-c2ccnn2C)ccc1Nc1cc(NC2CCCC2)c2c(C#N)c[nH]c2n1` [Example 87, 4-(cyclopentylamino)-6-((2-methoxy-4-(l-methyl-1H-pyrazol-5-yl)phenyl)amino)-1H-pyrrolo[2,3-b] pyridine-3-carbonitrile], the GI50 in the experiment with SHP-77 and in the experiment on MDA-MB-231 cells was less than 100 nM throughout. The same compound had a half-inhibitory concentration (IC50) against TTK of 50 to 200 nM.
`Cn1nccc1-c1ccc(Nc2cc(NC3CCCC3)c3c(C#N)c[nH]c3n2)c2c1OCCO2` [Example 88, 4-(cyclopentylamino)-6-((8-(1-methyl-1H-pyrazol-5-yl)-2,3-dihydrobenzo[b][1,4]dioxin-5-yl)amino)-1H-pyrrolo[2,3-b] pyridine-3-carbonitrile]: the GI50 in the experiment on SHP-77 and with MDA-MB-231 cells was less than 100 nM in each case. The 50% inhibitory concentration (IC50) at TTK lay in the range of 50 to 200 nM.
Consider `Cn1cc(-c2ccc(Nc3nc(NC4CCOCC4)c4c(C#N)c[nH]c4n3)c3c2OCCO3)cn1` [Example 89, 2-((8-(1-methyl-1H-pyrazol-4-yl)-2,3-dihydrobenzo[b][1,4]dioxin-5-yl)amino)-4-((tetrahydro-2H-pyran-4-yl)amino)-7H-pyrrolo[2,3-d] pyrimidine-5-carbonitrile], for which the GI50 with SHP-77 and with MDA-MB-231 cells was less than 100 nM throughout. In addition, the IC50 against TTK was less than 50 nM.
For `COc1cc(-c2nncn2C)ccc1Nc1nc(NC2CCOCC2)c2c(C#N)c[nH]c2n1` [Example 90, 2-((2-methoxy-4-(4-methy1-4H-1,2,4-triazol-3-yl)phenyl)amino)-4-((tetrahydro-2H-pyran-4-yl)amino)-7H-pyrrolo[2,3-d] pyrimidine-5-carbonitrile], the 50% growth inhibitory concentration (GI50) in the experiment with SHP-77 and in the experiment with MDA-MB-231 cells was less than 100 nM throughout. This compound also came in with a concentration for half-maximal inhibition (IC50) at TTK of less than 50 nM.
Take `COc1cc(-c2c(C)noc2C)ccc1Nc1nc(NC2CCOCC2)c2c(C#N)c[nH]c2n1` [Example 91]: the 50% growth inhibitory concentration (GI50) in the experiment on SHP-77 and in the experiment on MDA-MB-231 cells was less than 100 nM in each case. The compound also came in with a 50% inhibitory concentration (IC50) at TTK of less than 50 nM.
Consider `COc1cc(-c2cnn(C)c2)ccc1Nc1nc(NC2CCOCC2)c2c(C#N)c[nH]c2n1` [Example 92, 2-((2-methoxy-4-(1-methyl-1H-pyrazol-4-yl)phenyl)amino)-4-((tetrahydro-2H-pyran-4-yl)amino)-7H-pyrrolo[2,3-d] pyrimidine-5-carbonitrile], for which the GI50 in the experiment with SHP-77 and in the experiment on MDA-MB-231 cells was less than 100 nM each time. This compound also showed a half-maximal inhibitory concentration (IC50) at TTK of less than 50 nM.
For `COc1cc(-n2ccnc2C)ccc1Nc1nc(NC2CCOCC2)c2c(C#N)c[nH]c2n1` [Example 93, 2-((2-methoxy-4-(2-methyl-1H-imidazol-1-yl)phenyl)amino)-4-((tetrahydro-2H-pyran-4-yl)amino)-7H-pyrrolo[2,3-d] pyrimidine-5-carbonitrile], the concentration for 50% growth inhibition (GI50) in the experiment on SHP-77 and in the experiment with MDA-MB-231 cells was less than 100 nM in each case. The same compound had an IC50 on TTK of less than 50 nM.
Regarding `COCCNc1nc(Nc2ccc(-c3nncn3C)cc2OC)nc2[nH]cc(C#N)c12` [Example 95, 2-((2-methoxy-4-(4-methyl-4H-1,2,4-triazol-3-yl)phenyl)amino)-4-((2-methoxyethyl)amino)-7H-pyrrolo[2,3-d] pyrimidine-5-carbonitrile], the GI50 was less than 100 nM in the experiment with SHP-77 and 100 to 1000 nM in the experiment with MDA-MB-231 cells. The compound also yielded a half-inhibitory concentration (IC50) at TTK of less than 50 nM.
Taken in the same sequence, the figures for `COCCNc1nc(Nc2ccc(-c3c(C)noc3C)cc2OC)nc2[nH]cc(C#N)c12` [Example 96] were less than 100 nM, less than 100 nM and less than 50 nM.
Consider `COCCNc1nc(Nc2ccc(-c3cnn(C)c3)cc2OC)nc2[nH]cc(C#N)c12` [Example 97, 2-((2-methoxy-4-(1-methyl-1H-pyrazol-4-yl)phenyl)amino)-4-((2-methoxyethyl)amino)-7H-pyrrolo[2,3-d] pyrimidine-5-carbonitrile], for which the GI50 in the experiment on SHP-77 and in the experiment with MDA-MB-231 cells was less than 100 nM each time. On TTK, the concentration for half-maximal inhibition (IC50) is less than 50 nM.
Consider `COCCNc1nc(Nc2ccc(-n3ccnc3C)cc2OC)nc2[nH]cc(C#N)c12` [Example 98, 2-((2-methoxy-4-(2-methyl-1H-imidazol-1-yl)phenyl)amino)-4-((2-methoxyethyl)amino)-7H-pyrrolo[2,3-d] pyrimidine-5-carbonitrile], for which the GI50 in the experiment with SHP-77 and in the experiment on MDA-MB-231 cells was less than 100 nM each time. This compound also gave a half-maximal inhibitory concentration (IC50) against TTK of less than 50 nM.
`Cn1nccc1-c1ccc(Nc2nc(NC3CC3)c3c(C#N)c[nH]c3n2)c2c1OCCO2` [Example 99, 4-(cyclopropylamino)-2-((8-(1-methyl-1H-pyrazol-5-yl)-2,3-dihydrobenzo[b][1,4]dioxin-5-yl)amino)-7H-pyrrolo[2,3-d] pyrimidine-5-carbonitrile]: the 50% growth inhibitory concentration (GI50) with SHP-77 and in the experiment with MDA-MB-231 cells was less than 100 nM each time. On TTK, this compound displayed a half-inhibitory concentration (IC50) of less than 50 nM.
Consider `Cn1nccc1-c1ccc(Nc2nc(NCC3CCC3)c3c(C#N)c[nH]c3n2)c2c1OCCO2` [Example 100, 4-((cyclobutylmethyl)amino)-2-((8-(1-methyl-1H-pyrazol-5-yl)-2,3-dihydrobenzo[b][1,4]dioxin-5-yl)amino)-7H-pyrrolo[2,3-d] pyrimidine-5-carbonitrile], for which the GI50 with SHP-77 and with MDA-MB-231 cells was less than 100 nM throughout. On TTK, this compound gave a half-maximal inhibitory concentration (IC50) of 50 to 200 nM.
Consider `COC[C@@H](C)Nc1nc(Nc2ccc(-c3ccnn3C)c3c2OCCO3)nc2[nH]cc(C#N)c12` [Example 101], for which the GI50 in the experiment on SHP-77 and in the experiment with MDA-MB-231 cells was less than 100 nM each time. The same compound showed a concentration for half-maximal inhibition (IC50) against TTK of less than 50 nM.
For `COc1cc(-c2c(C)noc2C)c(F)cc1Nc1nc(NC2CCOCC2)c2c(C#N)c[nH]c2n1` [Example 102, 2-((4-(3,5-dimethylisoxazol-4-yl)-5-fluoro-2-methoxyphenyl)amino)-4-((tetrahydro-2H-pyran-4-yl)amino)-7H-pyrrolo[2,3-d] pyrimidine-5-carbonitrile], the concentration for 50% growth inhibition (GI50) in the experiment on SHP-77 and in the experiment with MDA-MB-231 cells was 100 to 1000 nM throughout. Besides, the half-maximal inhibitory concentration (IC50) against TTK was in the range of 200 to 1000 nM.
Consider `COc1cc(-c2ccnn2C)c(F)cc1Nc1nc(NC2CCCC2)c2c(C#N)c[nH]c2n1` [Example 103, 4-(cyclopentylamino)-2-((5-fluoro-2-methoxy-4-(1-methyl-1H-pyrazol-5-yl)phenyl)amino)-7H-pyrrolo[2,3-d] pyrimidine-5-carbonitrile], for which the 50% growth inhibitory concentration (GI50) in the experiment with SHP-77 and in the experiment with MDA-MB-231 cells was 100 to 1000 nM each time. In addition, the IC50 at TTK was 200 to 1000 nM.
Consider `COc1cc(-c2c(C)noc2C)c(F)cc1Nc1nc(NC2CCCC2)c2c(C#N)c[nH]c2n1` [Example 104, 4-(cyclopentylamino)-2-((4-(3,5-dimethylisoxazol-4-yl)-5-fluoro-2-methoxyphenyl)amino)-7H-pyrrolo[2,3-d] pyrimidine-5-carbonitrile], for which the GI50 in the experiment on SHP-77 and in the experiment with MDA-MB-231 cells was 100 to 1000 nM each time. At TTK, this compound registered a concentration for half-maximal inhibition (IC50) of 50 to 200 nM.
